{"source": "patent US20240216325A1", "about": "“NUCLEAR FACTOR KAPPA B PATHWAY INHIBITION TO ARREST CALCIFIC AORTIC STENOSIS” (CORNELL UNIVERSITY, priority 2019, published 2024)", "key": {"[1]": {"tested_on": "LDLR−/− mice, a CAVD mouse model", "assay": "Alizarin red staining for calcium contents on the aortic valves", "assay_type": "in vivo", "conditions": "8 weeks treatment after 20 weeks high fat diet", "procedure": "Animals. Mouse experiments were performed according to the guidelines of the National Institute of Health and the protocols approved by the Institutional Animal Care and Use Committee of Cornell University. The mice used were LDLR (low-density lipoprotein receptor)−/− mice from Jackson Labs (No. 2270). Mice were fed a high-fat diet (Harlan Teklad No. TD88137, 42% of calories from fat, 0.25% cholesterol). Age-matched C57BL6J mice were obtained from Jackson Laboratories (Bar Harbour, ME) for control study. Drug administration. The NFκB pathway was intervened by administering either BAY11-7082 (injected intraperitoneal 3 times per week at 5 mg/kg) or tetrahydrobiopterin (BH4) (oral gavage at 10 mg/kg/day) to LDLR/mice, for 8 weeks after giving them high fat diet for 20 weeks Tissue staining and immunohistochemistry. Mouse hearts were isolated, perfused, fixed, embedded in paraffin, sectioned, and mounted. Alizarin red staining (ARS). Sections were deparaffinized and incubated in ARS stain for 5 minutes (1% Alizarin red in water, pH 4.2 adjusted by using 10% ammonium hydroxide in water). Sections were incubated in acetone for 30 seconds and then rinsed with a 1:1 solution of acetone and xylene. […] Cardiac hemodynamic parameters, such as aortic valve peak velocity and left ventricle ejection fraction, were measured using doppler ultrasound before and after BAYT 1-7082 and BH4 administration. […]"}, "[2]": {"tested_on": "LDLR−/− mice, a CAVD mouse model", "assay": "Echocardiography (pulsed-wave Doppler) of heart valve function in CAVD mouse model", "assay_type": "in vivo", "procedure": "Animals. Mouse experiments were performed according to the guidelines of the National Institute of Health and the protocols approved by the Institutional Animal Care and Use Committee of Cornell University. The mice used were LDLR (low-density lipoprotein receptor)-/- mice from Jackson Labs (No. 2270). Mice were fed a high-fat diet (Harlan Teklad No. TD88137, 42% of calories from fat, 0.25% cholesterol). Age-matched C57BL6J mice were obtained from Jackson Laboratories (Bar Harbour, ME) for control study. Drug administration. The NFκB pathway was intervened by administering either BAY11-7082 (injected intraperitoneal 3 times per week at 5 mg/kg) or tetrahydrobiopterin (BH4) (oral gavage at 10 mg/kg/day) to LDLR/mice, for 8 weeks after giving them high fat diet for 20 weeks Echocardiography. Transthoracic echocardiography was performed under 2% isofluorane anaesthesia, with M[…] and MS5[…] probes connected to a Vevo 2100 system (VisualSonics). Heart valve function was assessed at 6 months and 8 months of age using according to established procedures. Mice were anesthetized using inhaled 2% isoflurane. Abdominal hair was removed using a chemical depilatory cream, and warmed ultrasound transmission gel was applied to the anterior thorax. Probes were applied in the long-axis and short-axis position to the chest. Transvalvular velocity and pressure gradients were captured using the pulsed-wave Doppler mode and manual tracing of >3 velocity time intervals on the resulting plots. In this work, the NFkB pathway was intervened by administering either BAY11-7082 (injected intraperitoneal 3 times per week at 5 mg/kg) or tetrahydrobiopterin (BH4) (oral gavage at 10 mg/kg/day) to LDLR^-/- mice, a CAVD mouse model, for another 8 weeks after starting them on high fat diet for 20 weeks (FIGS. 17A-17C). Cardiac hemodynamic parameters, such as aortic valve peak velocity and left ventricle ejection fraction, were measured using doppler ultrasound before and after BAYT 1-7082 and BH4 administration. […]"}, "[3]": {"tested_on": "NFκB canonical signaling activity", "conditions": "acute cardiovascular injury, literature; cited from earlier work"}, "[4]": {"tested_on": "LDLR−/− mice, a CAVD mouse model", "assay": "Fibro-osteogenic gene profiling (Q-PCR) on aortic valve tissues", "assay_type": "in vivo", "conditions": "8 weeks treatment after 20 weeks high fat diet", "procedure": "Animals. Mouse experiments were performed according to the guidelines of the National Institute of Health and the protocols approved by the Institutional Animal Care and Use Committee of Cornell University. The mice used were LDLR (low-density lipoprotein receptor)−/− mice from Jackson Labs (No. 2270). Mice were fed a high-fat diet (Harlan Teklad No. TD88137, 42% of calories from fat, 0.25% cholesterol). Age-matched C57BL6J mice were obtained from Jackson Laboratories (Bar Harbour, ME) for control study. Drug administration. The NFκB pathway was intervened by administering either BAY11-7082 (injected intraperitoneal 3 times per week at 5 mg/kg) or tetrahydrobiopterin (BH4) (oral gavage at 10 mg/kg/day) to LDLR/mice, for 8 weeks after giving them high fat diet for 20 weeks Q-PCR analysis. Mouse Aortic valve samples were homogenized, total RNA was isolated using Takarabio RNA, purified and further quantified via Nanodrop. […] Quantitative RT-PCR was performed on all samples using SYBR Green PCR master mix (Applied Biosystems, Foster City, CA) and a CFX96 or MiniOpticon Real-Time PCR Detection System (Bio-Rad, Hercules, CA). […] Cardiac hemodynamic parameters, such as aortic valve peak velocity and left ventricle ejection fraction, were measured using doppler ultrasound before and after BAYT 1-7082 and BH4 administration. […]"}, "[5]": {"tested_on": "valve endothelial cells (VEC)", "assay": "EndMT in VEC: VE-cadherin, αSMA, SNAI1 by RT-PCR and immunofluorescence", "assay_type": "cell-based, porcine", "conditions": "GM+TNFα 30 ng/mL, 48 h", "procedure": "Scale bar is 20 μm. […] Scale bar is […]. […] Arrows indicate cells coexpressing CD31 and αSMA. Scale bar is 100 μm. […] Asterisks indicate β-gal-positive cells in interstitial space. Scale bar is […]. CTL indicates control; GM, basal growth medium; and LDLR, low-density lipoprotein receptor.\n3D Hydrogel Culture Model Preparation. Cellularized type II collagen hydrogels were prepared as previously described (Butcher et al., “Valvular Endothelial Cells Regulate the Phenotype of Interstitial Cells in Co-Culture: Effects of Steady Shear Stress,” Tissue Eng. 12:905-915 (2006), which is hereby incorporated by reference in its entirety)). Briefly, porcine aortic valve endothelial cells were topically seeded at 50,000 cell/cm^2 density, whereas porcine aortic valve interstitial cells were encapsulated within the neutralized collagen gel suspension (2 mg/mL) at 1,000,000 cells/mL density. Constructs were allowed to gel for 1 hour at 37° C., 5% CO2, and then cultured overnight in their respective basal-medium conditions. For osteogenic differentiation conditions, basal-medium was supplemented with 10 mmol/L β-glycerophosphate, 50 μg/mL 1-ascorbic acid, and 100 nM dexamethasone, as previously described (Richards et al., “Side-Specific Endothelial-Dependent Regulation of Aortic Valve Calcification: Interplay of Hemodynamics and Nitric Oxide Signaling,” Am J Pathol. 182:1922-1931 (2013), which is hereby incorporated by reference in its entirety). For exogenous TNFα administration, recombinant human TNFα was added to appropriate media condition before administration at 30 ng/mL.\nQuantitative Real-Time Polymerase Chain Reaction. Total RNA was extracted using a RNeasy total RNA purification kit (Qiagen, Valencia, CA), and RNA was reverse transcribed to cDNA using the iScript cDNA synthesis kit (Bio-Rad, Hercules, CA). Quantitative RT-PCR was performed on all samples using SYBR Green PCR master mix (Applied Biosystems, Foster City, CA) and a CFX96 or MiniOpticon Real-Time PCR Detection System (Bio-Rad, Hercules, CA). Samples amplifying at >37 cycles were considered nondetectable.\nFor in vitro cultures, intact collagen gels were rinsed twice in PBS and fixed in 4% paraformaldehyde for 1 hour at 25° C. Samples were rinsed 3× on a rocker with PBS for 15 minutes each, permeabilized with 0.2% Triton-X (VWR International, West Chester, PA) for 10 minutes on rocker, and blocked in 10% goat serum for 1 hour at 25° C."}, "Porcine aortic VEC": {"tested_on": "Porcine aortic VEC", "assay": "VEC on 3D collagen hydrogels, calcification by Alizarin Red S staining and dye extraction", "assay_type": "cell-based", "conditions": "OGM+TNFα 30 ng/mL, 14 days", "text": "Primary Aortic Valve Cell Isolation and Culture. Porcine valves are a widely used analog for human adult valve endothelial and interstitial cells. Unlike mice, pigs develop atherosclerosis and valvular lesions without intervention, similar to humans. Large-scale culture of porcine valve cell populations is feasible due to ample tissue size/cell dissociation yields. […] Only VEC cultures with consistent CD31 and VE-cadherin (vascular endothelial cadherin) expression, cobblestone morphology, and nondetectable αSMA (alphasmooth muscle actin) expression were used. αSMA levels were measured via RT-PCR (>37 cycle threshold), Western blot, and immunofluorescence.\nAll reagents were obtained from Sigma Aldrich, St. Louis, MO, unless otherwise noted. […]\nHydrogel Calcification Analysis. To quantify calcified matrix developed in different experimental conditions, an Alizarin Red absorbance assay was implemented. […] The concentration of dye in solution was then quantified using absorbance spectroscopy at 405-nm wavelength. Samples absorbance readings were normalized to basal growth medium culture condition."}, "NFκB p65": {"tested_on": "NFκB p65", "assay": "p65 nuclear localization in VEC on 3D hydrogels (immunofluorescence)", "assay_type": "cell-based, porcine", "conditions": "48 hour, OGM alone insufficient", "procedure": "White arrows indicate cells with nuclear-positive signal. Scale bar is 20 μm. […] Asterisks indicate statistically significant groups (*: p<0.05).\n3D Hydrogel Culture Model Preparation. Cellularized type II collagen hydrogels were prepared as previously described (Butcher et al., “Valvular Endothelial Cells Regulate the Phenotype of Interstitial Cells in Co-Culture: Effects of Steady Shear Stress,” Tissue Eng. 12:905-915 (2006), which is hereby incorporated by reference in its entirety)). Briefly, porcine aortic valve endothelial cells were topically seeded at 50,000 cell/cm^2 density, whereas porcine aortic valve interstitial cells were encapsulated within the neutralized collagen gel suspension (2 mg/mL) at 1,000,000 cells/mL density. Constructs were allowed to gel for 1 hour at 37° C., 5% CO2, and then cultured overnight in their respective basal-medium conditions. For osteogenic differentiation conditions, basal-medium was supplemented with 10 mmol/L β-glycerophosphate, 50 μg/mL 1-ascorbic acid, and 100 nM dexamethasone, as previously described (Richards et al., “Side-Specific Endothelial-Dependent Regulation of Aortic Valve Calcification: Interplay of Hemodynamics and Nitric Oxide Signaling,” Am J Pathol. 182:1922-1931 (2013), which is hereby incorporated by reference in its entirety). […]"}, "RANKL": {"molecular_target": "T1, RANKL (Mus musculus, UniProt O35235)", "T1 construct": "host or cells: hypercholesterolemic mice (in vivo, endogenous protein)", "T1 sequence (O35235 1-316)": "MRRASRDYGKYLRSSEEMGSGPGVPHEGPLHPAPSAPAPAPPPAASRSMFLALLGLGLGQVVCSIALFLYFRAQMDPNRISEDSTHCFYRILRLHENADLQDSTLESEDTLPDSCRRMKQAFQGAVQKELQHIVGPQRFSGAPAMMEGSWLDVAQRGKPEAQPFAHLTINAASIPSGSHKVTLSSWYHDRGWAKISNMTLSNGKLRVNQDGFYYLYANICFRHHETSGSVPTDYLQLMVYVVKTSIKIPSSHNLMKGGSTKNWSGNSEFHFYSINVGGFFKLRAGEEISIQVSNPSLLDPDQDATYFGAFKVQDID", "conditions": "literature (Weiss et al. 2013); cited from earlier work"}, "[6]": {"conditions": "LDLR−/− mice on high fat diet, treatment from 6 months, read at 8 months, vs control LDLR−/− given 10% DMSO/PBS"}}}
{"molecule": "Cc1ccc(S(=O)(=O)/C=C/C#N)cc1", "note": "[BAY11-7082]", "values": [{"measurement": "calcium deposition on the aortic valves (Alizarin red staining)", "setting": "[1]", "value": "less calcium deposition"}, {"measurement": "aortic valve peak velocity", "setting": "[2]; [6]", "value": "lessened increase"}, {"measurement": "ejection fraction velocity ratio (EFVR)", "setting": "[2]; [6]", "value": "lessened"}, {"measurement": "hemodynamic effect by sex", "setting": "[2]; female vs male LDLR−/− mice, 8 weeks treatment", "value": "significantly affected both female and male mice"}, {"measurement": "treatment of septic shock or ischemic reperfusion injury", "setting": "[3]", "value": "effective"}, {"measurement": "collagen type 1A (Col1A) mRNA expression in aortic valve tissue", "setting": "[4]", "value": "significantly decreased"}, {"measurement": "intercellular adhesion molecule 1 (ICAM1) mRNA expression in aortic valve tissue", "setting": "[4]", "value": "significantly decreased"}]}
{"molecule": "TNFα", "values": [{"measurement": "EndMT induction", "setting": "[5]", "value": "induced EndMT"}, {"measurement": "SNAI1 gene expression", "setting": "[5]", "value": "significantly increased"}, {"measurement": "VE-cadherin gene expression (CDH5)", "setting": "[5]", "value": "reduction in gene expression"}, {"measurement": "αSMA expression", "setting": "[5]", "value": "increased"}, {"measurement": "calcium deposition (ARS)", "setting": "Porcine aortic VEC", "value": "significantly increased"}, {"measurement": "p65 nuclear localization", "setting": "NFκB p65", "value": "required to induce p65 nuclear localization"}]}
{"molecule": "osteoprotegerin: decoy receptor for RANKL", "values": [{"measurement": "CAVD calcification", "setting": "RANKL", "value": "mitigates CAVD calcification"}]}
